# Measured values published in patent US20220225159A1, “PARENTERAL DELIVERY OF AVIZAFONE” (Sollievo Pharmaceuticals, Inc, priority 2020, published 2022).
# Experiments:
# [1] = Diazepam plasma PK after single-dose SQ administration of AVF to dogs (Example 1); details: mean; single-dose SQ approx. 1.9 mg/kg avizafone; NCA
# [2] = Diazepam plasma PK after single-dose IM administration of AVF to dogs, Study 1 (Example 1)
# [3] = Diazepam plasma PK after single-dose IM administration of more concentrated AVF to dogs, Study 2 (Example 2); details: for AUClast/D (diazepam) / Cmax/D (diazepam): N=6, 0.0952 mol/L AVF, NCA
# beagle dogs = test: Time to onset of sedation after IM administration of AVF in a canine model; assay type: in vivo
# [4] = geometric mean, N=6, Study 1, IM, NCA
# [5] = mean, N=6, Study 1, IM, NCA, Table 5
# [6] = pooled without and with niacin, IM vs SQ
substance,measurement,setting,value
Avizafone,Cmax/D (diazepam),[1],264 (ng/mL)/(mg/kg)
same,V/F (diazepam),[1],2.432 L/kg
same,mean K01 (input rate constant) for DZP,"[2]; Study 1, IM, compartment modeling",0.2289 min⁻¹
same,AUClast/D (diazepam),[2]; [4],22243 (min*ng/mL)/(mg/kg)
same,Cmax/D (diazepam),[2]; [4],650 (ng/mL)/(mg/kg)
same,AUClast/D (diazepam),[2]; [5],22637 (min*ng/mL)/(mg/kg)
same,Cmax/D (diazepam),[2]; [5],702 (ng/mL)/(mg/kg)
same,V/F (diazepam),"[2]; mean, single-dose IM approx. 1.6 to 1.8 mg/kg avizafone, NCA",1.435 L/kg
same,Cmax/D (diazepam),"[2]; mean, single-dose IM approx. 1.6 to 1.8 mg/kg avizafone, NCA, Table 2",397 (ng/mL)/(mg/kg)
same,AUClast/D (diazepam),"[2]; median, N=6, Study 1, IM, NCA",22225 (min*ng/mL)/(mg/kg)
same,Cmax/D (diazepam),"[2]; median, N=6, Study 1, IM, NCA",574 (ng/mL)/(mg/kg)
same,DZP AUClast/D higher following IM than following SQ administration,[2]; [6],1.43 fold
same,DZP Cmax/D higher following IM than following SQ administration,[2]; [6],1.50 fold
same,shorter Tmax in Study 2 than in Study 1,"[3]; 3-fold higher injection solution concentration, 3-fold smaller injection volume, IM",3 fold
same,mean K01 higher in Study 2 compared to Study 1,"[3]; IM, Study 2 vs Study 1, compartment modeling",4.2 fold
same,mean K01 (input rate constant) for DZP,"[3]; Study 2, IM, compartment modeling",0.9501 min⁻¹
same,AUClast/D (diazepam),"[3]; geometric mean, Study 2, IM",22101 (min*ng/mL)/(mg/kg)
same,Cmax/D (diazepam),"[3]; geometric mean, Study 2, IM",644 (ng/mL)/(mg/kg)
same,AUClast/D (diazepam),"[3]; mean, Study 2, IM",22176 (min*ng/mL)/(mg/kg)
same,Cmax/D (diazepam),"[3]; mean, Study 2, IM",656 (ng/mL)/(mg/kg)
same,AUClast/D (diazepam),"[3]; median, Study 2, IM",21903 (min*ng/mL)/(mg/kg)
same,Cmax/D (diazepam),"[3]; median, Study 2, IM",605 (ng/mL)/(mg/kg)
same,median time for onset of sedation,"beagle dogs; Study 1, IM, less concentrated AVF formulations (mean 0.0300 mol/L)",greater than 45 minutes
same,median time for onset of sedation,"beagle dogs; Study 2, IM, more concentrated formulation (0.0952 mol/L)",approximately 10 minutes
